Assay results taken from PMC9019904, “AD Informer Set: Chemical tools to facilitate Alzheimer's disease drug discovery” (Alzheimer's & Dementia : Translational Research & Clinical …, 2022).
≈ marks a conversion by molar mass, not a printed value. Where two headings read alike, the source gives them in different places.

Tests used:
[1] = physchem; conditions: pH 7.4, aqueous buffer, kinetic from dmso stock
[2] = tested on: BV2 (mouse microglia) cell line; test: pHrodo-myelin phagocytosis/cell viability high content imaging assay: phagocytosis signal; format: cell-based
Procedure, shortened: (§1)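 High content imaging, roughly 22 hours post pHrodo-myelin addition, recorded phagocytosis signal alongside viability in microglial lines BV2 (mouse) and HMC3 (human). Apoptosis tracked through intensity rise (early) and fall (later) among three extracted measurements.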

[3] = tested on: HMC3 (human microglia) cell line; test: as above; format: cell-based
Procedure, shortened: as §1

[4] = tested on: cellular system; conditions: published cellular activity at 10 μM; cited from earlier work
[5] = Kinetic solubility in aqueous buffer pH 7.4 by total chemiluminescent nitrogen determination (Analiza); conditions: aqueous buffer, pH 7.4, aqueous buffer, kinetic from dmso stock
[6] = tested on: protein product expressed by the gene target; conditions: cited from earlier work
[7] = tested on: BV2 (mouse microglia) cell line; test: pHrodo-myelin phagocytosis/cell viability high content imaging assay: viability (cell count, nuclear area, nuclear intensity)
Procedure, shortened: (§2)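 Duplicate single-point screen at 10 μM over 48 h, combined with pHrodo-myelin phagocytosis during the last 20 h. Cytotoxicity is taken from imaged cell counts and nuclear intensity changes, normalized to untreated wells as % control.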

[8] = tested on: HMC3 (human microglia) cell line; test: as above
Procedure, shortened: as §2

[9] = BV2 cells, 10 μM, cell count <70% control
[10] = BV2 cells, 10 uM compound, 48 hours treatment
[11] = HMC3 cells, 10 uM compound, 48 hours treatment

CCN(CC)Cc1ccc(C(=O)N(CCc2ccccc2OC)[C@@H]2CCNC2)cc1.Cl.Cl [PF429242]
solubility kinetic [1]: 131 µM | Stimulation of mouse microglial phagocytosis at 10 μM (>150% control) ([2]; BV2 cells, 10 μM): Y (The compound was found to stimulate phagocytosis (response threshold: >150% control) when murine immortalized microglial cells were dosed at 10 μM (Y: yes)) | Inhibition of human microglial phagocytosis at 10 μM (<70% control) ([3]; HMC3 cells, 10 μM): Y (The compound was found to inhibit phagocytosis (response threshold: <70% control) when human immortalized microglial cells were dosed at 10 μM (Y: yes)) | Reported as cell active (<10 μM) [4]: Y (Published data supports that the compound is active in a cellular system when dosed at 10 μM (Y/N))

Cc1cc(SCc2sc(-c3ccc(C(F)(F)F)c(F)c3)nc2C)ccc1OCC(=O)O [GW0742]
solubility kinetic [1]: 145 µM (≈ 68.3 µg/mL) | Reported as cell active (<10 μM) [4]: Y (Published data supports that the compound is active in a cellular system when dosed at 10 μM (Y/N))

N#CC(CCCN1CCN(/N=C/c2cccnc2)CC1)(c1ccccc1)c1ccccc1 [SC-26196]
solubility kinetic [5]: 1.9 µM (≈ 0.805 µg/mL) | Reported on-target biochemical potency ([6]; gene target FADS2, ref PubMed 18719641, 23112819, 10419129): 200 nM

CN1C(=N)N[C@](C)(c2cc(NC(=O)c3ccc(F)cn3)ccc2F)CS1(=O)=O [Verubecestat (MK-8931)]
solubility kinetic [5]: 154 µM (≈ 63.3 µg/mL) | Reported on-target biochemical potency (nM): BACE1 ([6]; gene target BACE1, ref PubMed 27418961, 27023706): 1.8 nM | Reported on-target biochemical potency (nM): BACE2 ([6]; gene target BACE2, ref PubMed 27418961, 27023706): 0.37 nM

Cl.NC(=O)c1cnc(N[C@@H]2CCCC[C@@H]2N)nc1Nc1cccc(-n2nccn2)c1 [P505-15 (PRT06207 HCl)]
solubility kinetic [1]: 118 µM | Inhibition of mouse microglial phagocytosis at 10 μM (<70% control) ([2]; BV2 cells, 10 μM): Y (The compound was found to inhibit phagocytosis (response threshold: <70% control) when murine immortalized microglial cells were dosed at 10 μM (Y: yes)) | Inhibition of human microglial phagocytosis at 10 μM (<70% control) ([3]; HMC3 cells, 10 μM): Y (The compound was found to inhibit phagocytosis (response threshold: <70% control) when human immortalized microglial cells were dosed at 10 μM (Y: yes)) | Reported as cell active (<10 μM) [4]: Y (Published data supports that the compound is active in a cellular system when dosed at 10 μM (Y/N))

CC[C@H](C)[C@H](N)C(=O)NCCN1CCOCC1.Cl.Cl [LM11A-31 dihydrochloride]
solubility kinetic [1]: 178 µM | Stimulation of mouse microglial phagocytosis at 10 μM (>150% control) ([2]; BV2 cells, 10 μM): Y (The compound was found to stimulate phagocytosis (response threshold: >150% control) when murine immortalized microglial cells were dosed at 10 μM (Y: yes)) | Reported as cell active (<10 μM) [4]: Y (Published data supports that the compound is active in a cellular system when dosed at 10 μM (Y/N))

COc1nc(OCc2cccc(-c3ccccc3)c2C)ccc1CNCCNC(C)=O.Cl [BMS-202]
Mouse microglial cytotoxicity at 10 μM (<70% control) [7, 9]: Y (The compound was found to be cytotoxic (cell count threshold: <70% control) when murine immortalized microglial cells were dosed at 10 μM (Y: yes)) | Human microglial cytotoxicity at 10 μM (<70% control) ([8]; HMC3 cells, 10 μM, cell count <70% control): Y (The compound was found to be cytotoxic (cell count threshold: <70% control) when human immortalized microglial cells were dosed at 10 μM (Y: yes)) | solubility kinetic [1]: 97.9 µM | Inhibition of mouse microglial phagocytosis at 10 μM (<70% control) ([2]; BV2 cells, 10 μM): Y (The compound was found to inhibit phagocytosis (response threshold: <70% control) when murine immortalized microglial cells were dosed at 10 μM (Y: yes)) | Inhibition of human microglial phagocytosis at 10 μM (<70% control) ([3]; HMC3 cells, 10 μM): Y (The compound was found to inhibit phagocytosis (response threshold: <70% control) when human immortalized microglial cells were dosed at 10 μM (Y: yes)) | Reported as cell active (<10 μM) [4]: Y (Published data supports that the compound is active in a cellular system when dosed at 10 μM (Y/N))

O=C(Nc1ccc([N+](=O)[O-])cc1Cl)c1cc(Cl)ccc1O [Niclosamide]
solubility kinetic [1]: 17.5 µM (≈ 5.72 µg/mL) | Inhibition of human microglial phagocytosis at 10 μM (<70% control) ([3]; HMC3 cells, 10 μM): Y (The compound was found to inhibit phagocytosis (response threshold: <70% control) when human immortalized microglial cells were dosed at 10 μM (Y: yes)) | Reported as cell active (<10 μM) [4]: Y (Published data supports that the compound is active in a cellular system when dosed at 10 μM (Y/N))

Cl.O=C(NCCCNc1nc(Nc2cccc(CN3CCOCC3)c2)ncc1C1CC1)C1CCC1 [UNC10302867A, reference compound]
Mouse microglial cytotoxicity at 10 μM (<70% control) ([7]; 10 μM, BV2): Y (The compound was found to be cytotoxic (cell count threshold: <70% control) when murine immortalized microglial cells were dosed at 10 μM (Y: yes)) | 1. Cell count (% control) [7, 10]: 17.6 % control | 2. Nuclear Area (% Control) [7, 10]: 154.0 % Control | 3. Nuclear DNA Intensity (% control) [7, 10]: 122.3 % control | 1. Cell count (% control) [8, 11]: 81.1 % control | 2. Nuclear Area (% Control) [8, 11]: 129.3 % Control | 3. Nuclear DNA Intensity (% control) [8, 11]: 124.9 % control | solubility kinetic [1]: 119 µM | Stimulation of mouse microglial phagocytosis at 10 μM (>150% control) ([2]; 10 μM, BV2): Y (The compound was found to stimulate phagocytosis (response threshold: >150% control) when murine immortalized microglial cells were dosed at 10 μM (Y: yes)) | phagocytosis in mouse microglial cells (< 70% control inhibition, > 150% control stimulation) ([2]; BV2, 10 μM, pHrodo-myelin): stimulator of phagocytosis | 4. Phagocytosis (% control) ([2]; BV2 cells, 10 uM compound, 48 hours treatment, pHrodo-myelin final 20 hours): 282.0 % control | Stimulation of human microglial phagocytosis at 10 μM (>150% control) ([3]; 10 μM, HMC3): Y (The compound was found to stimulate phagocytosis (response threshold: >150% control) when human immortalized microglial cells were dosed at 10 μM (Y: yes)) | phagocytosis in human microglial cells (< 70% control inhibition, > 150% control stimulation) ([3]; HMC3, 10 μM, pHrodo-myelin): stimulator of phagocytosis | 4. Phagocytosis (% control) ([3]; HMC3 cells, 10 uM compound, 48 hours treatment, pHrodo-myelin final 20 hours): 290.0 % control

O=S(=O)(c1ccc2c(c1)C(=NO)c1cc(S(=O)(=O)N3CCCCC3)ccc1-2)N1CCCCC1 [CA3 (CIL56)]
Mouse microglial cytotoxicity at 10 μM (<70% control) ([7]; BV2, 10 μM, cell count <70% control): Y (The compound was found to be cytotoxic (cell count threshold: <70% control) when murine immortalized microglial cells were dosed at 10 μM (Y: yes)) | Human microglial cytotoxicity at 10 μM (<70% control) ([8]; HMC3, 10 μM, cell count <70% control): Y (The compound was found to be cytotoxic (cell count threshold: <70% control) when human immortalized microglial cells were dosed at 10 μM (Y: yes)) | solubility kinetic [1]: 1.2 µM (≈ 0.588 µg/mL) | Inhibition of mouse microglial phagocytosis at 10 μM (<70% control) ([2]; BV2, 10 μM): Y (The compound was found to inhibit phagocytosis (response threshold: <70% control) when murine immortalized microglial cells were dosed at 10 μM (Y: yes)) | Inhibition of human microglial phagocytosis at 10 μM (<70% control) ([3]; HMC3, 10 μM): Y (The compound was found to inhibit phagocytosis (response threshold: <70% control) when human immortalized microglial cells were dosed at 10 μM (Y: yes))

NC(=O)[C@@H]1CC[C@H](c2ccc(OCc3ccccc3F)cc2)N1 [Raxatrigine]
solubility kinetic [1]: 178 µM (≈ 55.9 µg/mL) | Stimulation of mouse microglial phagocytosis at 10 μM (>150% control) ([2]; BV2 cells, 10 μM): Y (The compound was found to stimulate phagocytosis (response threshold: >150% control) when murine immortalized microglial cells were dosed at 10 μM (Y: yes)) | Reported as cell active (<10 μM) [4]: Y (Published data supports that the compound is active in a cellular system when dosed at 10 μM (Y/N))

O=c1[nH]c2ccccc2n1C1CCN(CCCC(c2ccc(F)cc2)c2ccc(F)cc2)CC1 [Pimozide]
solubility kinetic [1]: 2.9 µM (≈ 1.34 µg/mL) | Reported as cell active (<10 μM) [4]: Y (Published data supports that the compound is active in a cellular system when dosed at 10 μM (Y/N))

CCc1cc2c(cc1N1CCC(N3CCOCC3)CC1)C(C)(C)c1[nH]c3cc(C#N)ccc3c1C2=O [Alectinib]
Human microglial cytotoxicity at 10 μM (<70% control) ([8]; HMC3, 10 μM): Y (The compound was found to be cytotoxic (cell count threshold: <70% control) when human immortalized microglial cells were dosed at 10 μM (Y: yes)) | solubility kinetic [1]: 0.6 µM (≈ 0.29 µg/mL) | Stimulation of mouse microglial phagocytosis at 10 μM (>150% control) ([2]; BV2, 10 μM): Y (The compound was found to stimulate phagocytosis (response threshold: >150% control) when murine immortalized microglial cells were dosed at 10 μM (Y: yes)) | Inhibition of human microglial phagocytosis at 10 μM (<70% control) ([3]; HMC3, 10 μM): Y (The compound was found to inhibit phagocytosis (response threshold: <70% control) when human immortalized microglial cells were dosed at 10 μM (Y: yes))

O=C(N/N=C/c1ccc(Cl)cc1)c1ccccc1 [Compound 1e]
solubility kinetic [5]: 37.8 µM (≈ 9.78 µg/mL) | Reported on-target biochemical potency ([6]; gene target CTSH, ref PubMed 25181676): 440 nM

Cc1cc(Nc2nc(N[C@@H](C)c3ncc(F)cn3)ncc2Cl)n[nH]1 [AZD-1480]
Mouse microglial cytotoxicity at 10 μM (<70% control) [7, 9]: Y (The compound was found to be cytotoxic (cell count threshold: <70% control) when murine immortalized microglial cells were dosed at 10 μM (Y: yes)) | solubility kinetic [1]: 141 µM (≈ 49 µg/mL) | Stimulation of mouse microglial phagocytosis at 10 μM (>150% control) ([2]; BV2 cells, 10 μM): Y (The compound was found to stimulate phagocytosis (response threshold: >150% control) when murine immortalized microglial cells were dosed at 10 μM (Y: yes)) | Reported as cell active (<10 μM) [4]: Y (Published data supports that the compound is active in a cellular system when dosed at 10 μM (Y/N))

CCOC(=O)N1c2ccc(C(F)(F)F)cc2[C@@H](N(Cc2cc(C(F)(F)F)cc(C(F)(F)F)c2)C(=O)OC)C[C@H]1CC [Torcetrapib]
solubility kinetic [5]: < 1.1 µM | Reported on-target biochemical potency ([6]; gene target CETP, ref Probe Miner, PubMed 17984165, 19164467): 7.72 nM

Cc1ccc(S(=O)(=O)O)cc1.Nc1n[nH]cc1-c1cc(Cl)ccc1Oc1cc(F)c(S(=O)(=O)Nc2cscn2)cc1Cl [PF-05089771]
solubility kinetic [1]: 76.4 µM | Reported as cell active (<10 μM) [4]: Y (Published data supports that the compound is active in a cellular system when dosed at 10 μM (Y/N))
